Experimental data published in US9573913B2, “Cathepsin cysteine protease inhibitors” (Merck Sharp & Dohme Corp., priority 2013, dated 2017).

Legend:
human cathepsin K = human cathepsin K (UniProt P43236); assay: Cathepsin K Assay (hrbCat K); assay type: biochemical; details: Z-Leu-Arg-AMC substrate, pH 5.5, 15 min preincubation; read-out: hrbCat K (IP (nM))
Method: Cathepsin K Assay (hrbCat K)
(§1) Then 0.5 μL of DMSO from each dilution were added to 18.75 μL of assay buffer (MES, 50 mM (pH 5.5); EDTA, 2.5 mM; DTT, 2.5 mM and 10% DMSO) containing human cathepsin K (0.4 nM) in assay buffer solution. The assay solutions were mixed for 5-10 seconds on a shaker plate and incubated for 15 minutes at room temperature. Z-Leu-Arg-AMC (8 μM) in 6.25 μL of assay buffer was added to the assay solutions. Hydrolysis of the coumarin leaving group (AMC) was followed by spectrofluorometry (Exλ=360 nm; Emλ=460 nm) for 30 minutes. Percent of inhibition were calculated by fitting experimental values to standard mathematical model for dose response curve.

human cathepsin F = target: T1, human cathepsin F (Homo sapiens, UniProt Q9UBX1); assay: Cathepsin F assay (hCat F); assay type: biochemical; details: Z-Phe-Arg-AMC substrate, pH 5.5, 15 min preincubation; read-out: hCat F (IP (nM))
T1 sequence (Q9UBX1 271-484): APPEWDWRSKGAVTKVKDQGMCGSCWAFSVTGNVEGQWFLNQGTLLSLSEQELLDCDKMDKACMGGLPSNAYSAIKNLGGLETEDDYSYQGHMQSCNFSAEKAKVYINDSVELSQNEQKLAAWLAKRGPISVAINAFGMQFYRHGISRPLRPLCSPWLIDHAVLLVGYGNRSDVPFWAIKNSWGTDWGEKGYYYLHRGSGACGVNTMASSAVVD
Method: Cathepsin F assay (hCat F)
as §1, with “Serial dilutions (1/3) from 500 μM down to 0.025 μM of test compounds were prepared in dimethyl sulfoxide (DMSO). Then” for “Then”, “F (10” for “K (0.4”, “Z-Phe-Arg-AMC” for “Z-Leu-Arg-AMC”, “20” for “30”

| SMILES | IC50 (human cathepsin K) [nM] | IC50 (human cathepsin F) [nM] |
| --- | --- | --- |
| CC(Oc1ncccc1-c1nc([C@@H]2CCCC[C@H]2C(=O)NC2(C#N)CC2)c(-c2ccc(N3CCS(=O)(=O)CC3)cc2)s1)C(F)(F)F (mixture of isomers) [Example 134, (1R,2R)-N-(1-cyanocyclopropyl)-2-(5-(4-(1,1-dioxidothiomorpho-lino)phenyl)-2-(2-(((S and R)-1,1,1-trifluoropropan-2-yl)oxy)pyridin-3-yl)thiazol-4-yl)cyclohexane-carboxamide] | 2.8 | 3330 |
| CC(Oc1ccc(-c2nc([C@@H]3CCCC[C@H]3C(=O)NC3(C#N)CC3)c(-c3ccc(N4CCS(=O)(=O)CC4)cc3)s2)cn1)C(F)(F)F (mixture of isomers) [Example 137, (1R,2R)-N-(1-cyanocyclopropyl)-2-(5-(4-(1,1-dioxidothiomorpho-lino)phenyl)-2-(6-(((S and R)-1,1,1-trifluoropropan-2-yl)oxy)pyridin-3-yl)thiazol-4-yl)cyclohexane-carboxamide] | 1.2 | 3330 |
| N#CC1(NC(=O)[C@@H]2CCCC[C@H]2c2nc(C3CCCCO3)sc2-c2ccc(N3CCS(=O)(=O)CC3)cc2)CC1 (mixture of isomers) [Example 148, (1R,2R)-N-(1-cyanocyclopropyl)-2-(5-(4-(1,1-dioxidothiomorpho-lino)phenyl)-2-((R and S)-tetrahydro-2H-pyran-2-yl)thiazol-4-yl)cyclohexane-carboxamide] | 2.6 | 1930 |
| N#CC1(NC(=O)[C@@H]2CCCC[C@H]2c2nc(C3CCC(F)(F)C3)sc2-c2ccc(N3CCS(=O)(=O)CC3)cc2)CC1 (mixture of isomers) [Example 154, (1R,2R)-N-(1-cyanocyclopropyl)-2-(2-((R and S)-3,3-difluorocyclopentyl)-5-(4-(1,1-dioxidothiomorpho-lino)phenyl)thiazol-4-yl)cyclohexane-carboxamide] | 4.5 | 1000 |
| N#CC1(NC(=O)[C@@H]2CCCC[C@H]2c2nc(C(O)C(F)(F)F)sc2-c2ccc(N3CCS(=O)(=O)CC3)cc2)CC1 (mixture of isomers) [Example 228, (1R,2R)-N-(1-cyanocyclopropyl)-2-(5-(4-(1,1-dioxidothiomorpho-lino)phenyl)-2-((R and S)-2,2,2-trifluoro-1-hydroxyethyl)thia-zol-4-yl)cyclohexane-carboxamide] | 5.1 | 5390 |
| Cc1nc(C2CCCCC2C(=O)NCC#N)c(-c2ccc(N3CCS(=O)(=O)CC3)cc2)s1 (racemic) [Example 245, N-(cyanomethyl)-2-(5-(4-(1,1-dioxidothiomorpho-lino)phenyl)-2-methylthiazol-4-yl)cyclohexane-carboxamide] | 5.4 | 3280 |
| Cc1nc(C2CCCCC2C(=O)NCC#N)c(-c2ccc(C(=O)N3CCOCC3)cc2)s1 (racemic) [Example 246, N-(cyanomethyl)-2-(2-methyl-5-(4-(morpholine-4-carbonyl)phenyl)thi-azol-4-yl)cyclohexane-carboxamide] | 38.2 | > 10000 |
| CC(C)(O)C(C#N)NC(=O)[C@@H]1CCCC[C@H]1c1nc(-c2ccc(F)cn2)sc1-c1ccc(N2CCS(=O)(=O)CC2)cc1 (single isomer, unassigned) [Example 226, (1R,2R)-N-((S or R)-1-cyano-2-hydroxy-2-methylpropyl)-2-(5-(4-(1,1-dioxidothiomorpho-lino)phenyl)-2-(5-fluoropyridin-2-yl)thiazol-4-yl)cyclohexane-carboxamide] |  | ≥ 10000 |

The next lines start with the values.

| IC50 (human cathepsin K) [nM] | IC50 (human cathepsin F) [nM] | SMILES |
| --- | --- | --- |
| 4.5 | 1000 | N#CC1(NC(=O)[C@@H]2CCCC[C@H]2c2nc(C3CCOC3)sc2-c2ccc(N3CCS(=O)(=O)CC3)cc2)CC1 (mixture of isomers) [Example 147, (1R,2R)-N-(1-cyanocyclopropyl)-2-(5-(4-(1,1-dioxidothiomorpho-lino)phenyl)-2-((R and S)-tetrahydrofuran-3-yl)thiazol-4-yl)cyclohexane-carboxamide] |
| 2.7 | 49 | CS(=O)(=O)c1ccc(-c2oc(-c3ccccc3)nc2C2CCC(F)(F)CC2C(=O)NCC#N)cc1 (racemic) [Example 162, (1R,2R and 1S,2S)-N-(cyanomethyl)-5,5-difluoro-2-(5-(4-(methylsulfonyl)phenyl)-2-phenyloxazol-4-yl)cyclohexane-carboxamide] |
| 2.9 | 26 | CS(=O)(=O)c1ccc(-c2oc(-c3ccc(F)cc3)nc2C2CCC(F)(F)CC2C(=O)NCC#N)cc1 (racemic) [Example 163, (1R,2R and 1S,2S)-N-(cyanomethyl)-5,5-difluoro-2-(2-(4-fluorophenyl)-5-(4-(methylsulfonyl)phenyl)oxazol-4-yl)cyclohexane-carboxamide] |
| 2.4 | 60 | N#CC(NC(=O)[C@@H]1CCCC[C@H]1c1nc(-c2ccc(F)cn2)sc1-c1ccc(N2CCS(=O)(=O)CC2)cc1)C(F)(F)F (mixture of isomers) [Example 215, (1R,2R)-N-((S and R)-1-cyano-2,2,2-trifluoroethyl)-2-(5-(4-(1,1-dioxidothiomorpho-lino)phenyl)-2-(5-fluoropyridin-2-yl)thiazol-4-yl)cyclohexane-carboxamide] |
| 2.6 | 757 | C[C@@H](C#N)NC(=O)[C@@H]1CCCC[C@H]1c1nc(C(O)C(F)(F)F)sc1-c1ccc(N2CCS(=O)(=O)CC2)cc1 (mixture of isomers) [Example 229, (1R,2R)-N-((S)-1-cyanoethyl)-2-(5-(4-(1,1-dioxidothiomorpho-lino)phenyl)-2-((R and S)-2,2,2-trifluoro-1-hydroxyethyl)thia-zol-4-yl)cyclohexane-carboxamide] |
| 2.1 | 229 | N#CCNC(=O)C1CCCCC1c1nc(-c2ccccc2)sc1-c1ccc(N2CCS(=O)(=O)CC2)cc1 (racemic) [Example 247, N-(cyanomethyl)-2-(5-(4-(1,1-dioxidothiomorpho-lino)phenyl)-2-phenylthiazol-4-yl)cyclohexane-carboxamide] |
| 0.7 | 225 | N#CC1(NC(=O)[C@@H]2CC3CC3C[C@H]2c2nc(-c3cncc(F)c3)sc2-c2ccc(N3CCS(=O)(=O)CC3)cc2)CC1 (single isomer, unassigned) [Compound 3, (1S or 1R,3R,4R,6R or 6S)-N-(1-Cyanocyclopropyl)-4-(5-(4-(1,1-dioxidothiomorpholino)phenyl)-2-(5-fluoropyridin-3-yl)thiazol-4-yl)bicyclo[4.1.0]heptane-3-carboxamide] |
| 0.9 | 439 | N#CC1(NC(=O)[C@@H]2CC3CC3C[C@H]2c2nc(-c3cncc(F)c3)sc2-c2ccc(N3CCS(=O)(=O)CC3)cc2)CC1 (single isomer, unassigned) [Compound 4, (1R or 1S,3R,4R,6S or 6R)-N-(1-Cyanocyclopropyl)-4-(5-(4-(1,1-dioxidothiomorpholino)phenyl)-2-(5-fluoropyridin-3-yl)thiazol-4-yl)bicyclo[4.1.0]heptane-3-carboxamide] |
| 1.7 | 632 | N#CC1(NC(=O)[C@@H]2CC3CC3C[C@H]2c2nc(-c3ccc(F)cn3)sc2-c2ccc(N3CCS(=O)(=O)CC3)cc2)CC1 (single isomer, unassigned) [Example 100, (1S or 1R,3R,4R,6R or 6S)-N-(1-cyanocyclopropyl)-4-(5-(4-(1,1-dioxidothiomorpho-lino)phenyl)-2-(5-fluoropyridin-2-yl)thiazol-4-yl)bicyclo[4.1.0] heptane-3-carboxamide] |
